Results taken from ChEMBL document CHEMBL4007400, “Role of Reactive Oxygen Species (ROS) in Therapeutics and Drug Resistance in Cancer and Bacteria” (J Med Chem, 2017).
pKi: −log10 of the molar value.

Target: T1, 4,4'-diapophytoene synthase (Staphylococcus aureus, UniProt A9JQL9)
T1 sequence (A9JQL9 whole entry): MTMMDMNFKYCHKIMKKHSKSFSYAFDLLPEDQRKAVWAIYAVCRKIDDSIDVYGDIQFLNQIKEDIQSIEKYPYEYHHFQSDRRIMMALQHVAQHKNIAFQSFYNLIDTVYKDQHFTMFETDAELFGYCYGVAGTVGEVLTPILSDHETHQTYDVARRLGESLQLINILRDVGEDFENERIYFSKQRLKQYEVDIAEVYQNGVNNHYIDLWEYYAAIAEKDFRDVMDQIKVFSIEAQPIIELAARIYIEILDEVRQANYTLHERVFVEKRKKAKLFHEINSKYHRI
Assay: Inhibition of Staphylococcus aureus ATCC 27659 histidine-tagged full length CrtM expressed in Escherichia coli BL21(DE3) cells assessed as decrease in staphyloxanthin formation after 30 mins by continous spectrophotometric method

Compound: O=P(O)(O)C(CCCc1cccc(Oc2ccccc2)c1)S(=O)(=O)O (stereo unspecified)
- pKi: 8.82
